In PubChem BioAssay (NCI):
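Test compounds were applied to cells in 96-well plates for 48 hours at 5 doses. The concentration for 50% growth inhibition is given as GI50. TGI marks complete inhibition of growth.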

Legend:
Assay in all cases: NCI-60 cell line screen, 48 h
[1] = tested on: COLO 205 colon
[2] = tested on: SN12C renal
[3] = tested on: OVCAR-8 ovarian
[4] = tested on: U251 CNS
[5] = tested on: 786-0 renal
[6] = tested on: SF-268 CNS
[7] = tested on: OVCAR-3 ovarian
[8] = tested on: SW-620 colon
[9] = tested on: DU-145 prostate
[10] = tested on: MALME-3M melanoma
[11] = tested on: NCI-H23 lung
[12] = tested on: M14 melanoma
[13] = tested on: OVCAR-4 ovarian
[14] = tested on: SNB-19 CNS
[15] = tested on: HOP-92 NSCLC
[16] = tested on: LOX IMVI melanoma
[17] = tested on: PC-3 prostate
[18] = tested on: A549 NSCLC
[19] = tested on: OVCAR-5 ovarian
[20] = tested on: CAKI-1 renal
[21] = tested on: MDA-MB-231 breast
[22] = tested on: SK-MEL-2 melanoma
[23] = tested on: MOLT-4 leukemia
[24] = tested on: HCC-2998 colon
[25] = tested on: TK-10 renal
[26] = tested on: T-47D breast
[27] = tested on: UO-31 renal
[28] = tested on: NCI-H522 lung
[29] = tested on: SR leukemia

CCC(=C/[C@H](C)C/C=C/C(C)=C/[C@@H](C)C(=O)[C@@H](C)[C@H](O)[C@@H](C)CC)/C=C/[C@@H]1OC(=O)C=C[C@@H]1C
GI50 [1]: < 5 nM
TGI [1]: < 5 nM
GI50 [2]: < 5 nM
TGI [2]: 4320 nM
GI50 [3]: < 5 nM
TGI [3]: 6160 nM
GI50 [4]: < 5 nM
TGI [4]: 2060 nM
GI50 [5]: < 5 nM
TGI [5]: < 5 nM
GI50 [6]: < 5 nM
TGI [6]: 2190 nM
GI50 [7]: < 5 nM
TGI [7]: 6300 nM
GI50 [8]: < 5 nM
TGI [8]: 3180 nM
GI50 [9]: < 5 nM
TGI [9]: 5710 nM
GI50 [10]: < 5 nM
TGI [10]: 253 nM
GI50 [11]: < 5 nM
TGI [11]: 4290 nM
GI50 [12]: < 5 nM
TGI [12]: < 5 nM
GI50 [13]: < 5 nM
TGI [13]: 6660 nM
GI50 [14]: < 5 nM
TGI [14]: 3500 nM
GI50 [15]: < 5 nM
TGI [15]: < 5 nM
GI50 [16]: < 5 nM
TGI [16]: 584 nM
GI50 [17]: < 5 nM
TGI [17]: 5940 nM
GI50 [18]: < 5 nM
TGI [18]: 7020 nM
GI50 [19]: < 5 nM
TGI [19]: 4740 nM
GI50 [20]: < 5 nM
TGI [20]: 8530 nM
GI50 [21]: < 5 nM
TGI [21]: 4640 nM
GI50 [22]: < 5 nM
TGI [22]: 3030 nM
GI50 [23]: < 5 nM
TGI [23]: < 5 nM
GI50 [24]: < 5 nM
TGI [24]: < 5 nM
GI50 [25]: < 5 nM
TGI [25]: 10700 nM
GI50 [26]: < 5 nM
TGI [26]: 6180 nM
GI50 [27]: < 5 nM
TGI [27]: 214 nM
GI50 [28]: < 5 nM
TGI [28]: 81.7 nM
GI50 [29]: < 5 nM
